Reference: patent US5571822A, “Antitumor compounds” (The University of North Carolina at Chapel Hill, priority 1994, dated 1996)
Read-outs that look alike come from different tables or passages of the source.

Tests used:
[1] = tested on: tubulin; experiment: inhibition of tubulin polymerization (ITP); type: biochemical, bovine
Description: Electrophoretically homogeneous bovine brain tubulin was purified as described previously (Hamel, et al., 1984). […] Dihydrocombretastatin A-4 was prepared as described previously (Getahun et al., 1992).
The tubulin polymerization assay was performed as described previously (Li et al., 1994). In brief, tubulin at 1.2 mg/mL ([…]) was preincubated for 15 min at 26° C. in a 0.24 mL volume in 0.8M monosodium glutamate (pH 6.6 with NaOH in a 2M stock solution) with varying drug concentrations. The drug stock solutions were in dimethyl sulfoxide, and the final solvent concentration was 4% (v/v). […] All concentrations are in terms of the final reaction volume (0.25 mL). The reaction mixtures were chilled on ice, and […] of 10 mM GTP was added to each reaction mixture. Samples were transferred to cuvettes held at 0° C. by an electronic temperature controller in Gilford spectrophotometers. Baselines were established at 350 nm, and polymerization initiated by a temperature jump to 26° C. The jump took about 50 sec to complete. After 20 min, turbidity readings were recorded, and the temperature controller was set to 0° C. When depolymerization was complete, turbidity readings were again recorded. […] IC50 values were obtained graphically from inhibition of polymerization by different drug concentrations. Four spectrophotometers were used for each experimental sequence, with at least two control reactions (no drug) in each set.

[2] = tested on: tubulin; experiment: inhibition of radiolabeled colchicine binding to tubulin (ICB); set-up: species or system bovine; conditions: evaluated only when polymerization IC50 ≤ 1.0 μM; inhibitor equimolar with [3H]colchicine, 5-fold molar excess over tubulin
Description: Studies conducted in support of the present invention indicate that one mode of action of the 2-phenyl-4-quinolone compounds, as antitumor agents, is an ability to bind to tubulin and inhibit cell mitosis. […] […].
[…]. […] […].
Electrophoretically homogeneous bovine brain tubulin was purified as described previously (Hamel, et al., 1984). Combretastatin A-4 was a generous gift of Dr. G. R. Pettit, Arizona State University. Dihydrocombretastatin A-4 was prepared as described previously (Getahun et al., 1992). […]

[3] = tested on: SF-295; experiment: NCI in vitro tumor cell screen, SF-295 CNS tumor; type: cell-based
Description: (§1) Selected 2-phenyl-4-quinolones were assayed using an in vitro, disease-oriented antitumor screen run by the National Cancer Institute (NCI) (e.g., Boyd 1989). The screen involved approximately 60 different cell lines and is a useful indicator of in vivo antitumor activity for a broad variety of tumor types (Grever et al., 1992; Monks et al., 1991). The cell lines tested included cells derived from the following solid tumor types: leukemia, non-small cell lung, colon, the central nervous system (CNS), melanoma, ovarian, renal, prostate, and breast cancers.
(§2) melonoma; SF268 and SF295, CNS tumor cell lines; DU145, prostate cancer

[4] = tested on: SF-268; experiment: NCI in vitro tumor cell screen, SF-268 CNS tumor; type: cell-based; conditions: Homo sapiens
Description: as §1, §2

[5] = tested on: approximately 60 different cell lines; experiment: NCI in vitro disease-oriented human tumor cell screen, all cell lines; type: cell-based; conditions: for GI50: Homo sapiens
Description: The cell lines tested included cells derived from the following solid tumor types: leukemia, non-small cell lung, colon, the central nervous system (CNS), melanoma, ovarian, renal, prostate, and breast cancers.

[6] = tested on: NCI-H226; experiment: NCI in vitro tumor cell screen, NCI-H226 non-small cell lung cancer; type: cell-based; conditions: Homo sapiens
Description: as §1

[7] = tested on: RXF-393; experiment: NCI in vitro tumor cell screen, RXF-393 renal cancer; type: cell-based; conditions: Homo sapiens
Description: as §1

[8] = tested on: MDA-N; experiment: NCI in vitro tumor cell screen, MDA-N breast cancer; type: cell-based; conditions: Homo sapiens
Description: as §1

[9] = tested on: KM202L; experiment: NCI in vitro tumor cell screen, KM20L2 colon cancer; type: cell-based; conditions: Homo sapiens, KM-20L2
Description: as §1

[10] = tested on: OVCAR-4; experiment: NCI in vitro tumor cell screen, OVCAR-4 ovarian cancer; type: cell-based; conditions: Homo sapiens
Description: as §1

[11] = tested on: K-562; experiment: NCI in vitro tumor cell screen, K-562 leukemia; type: cell-based; conditions: Homo sapiens, K562
Description: as §1

[12] = tested on: SK-Mel-5; experiment: NCI in vitro tumor cell screen, SK-Mel-5 melanoma; type: cell-based; conditions: Homo sapiens
Description: as §1, §2

[13] = tested on: DU-145; experiment: NCI in vitro tumor cell screen, DU-145 prostate cancer; type: cell-based; conditions: Homo sapiens
Description: as §1, §2

[14] = tested on: HCT116; experiment: NCI in vitro tumor cell screen, HCT116 colon cancer; type: cell-based; conditions: Homo sapiens, HCT-116
Description: as §1

[15] = tested on: OVCAR-3; experiment: NCI in vitro tumor cell screen, OVCAR-3 ovarian cancer; type: cell-based; conditions: Homo sapiens
Description: as §1

[16] = ± SD, tubulin 1.2 mg/mL, 26° C., 20 min, read-out: ITP IC50 (inhibition of tubulin polymerization)
[17] = Homo sapiens, SF-295; read-out: logGI50 (converted)
[18] = values given in mM, read-out: IC50, inhibition of tubulin polymerization
[19] = calculated from all cell lines tested (Table II), read-out: average logGI50 (converted)
[20] = SF-268, CNS tumor, read-out: logGI50 (converted)
[21] = average over cell lines, read-out: average log GI50 (converted)

SMILES | IC50 [1, 16] [mM] | ICB (% inhibition of colchicine binding) [2] [%] | GI50 [3, 17] [nM] | GI50 [5, 19] [nM] | GI50 [9] [nM] | GI50 [4, 20] [nM] | GI50 [11] [nM] | GI50 [12] [nM] | GI50 [14] [nM] | further results
O=c1cc(-c2ccccc2)[nH]c2cc3c(cc12)OCO3 [compound 34] | 0.00063 ± 0.0002 | 26 ± 10 |  |  |  |  |  |  |  | 
COc1cccc(-c2cc(=O)c3cc4c(cc3[nH]2)OCO4)c1 [compound 35] | 0.00057 ± 0.0001 | 39 ± 8 |  |  |  |  |  |  |  | 
CC(=O)Nc1ccc2[nH]c(-c3cccc(F)c3)cc(=O)c2c1 [compound 25, 3'-Fluoro-6-acetamido-2-phenyl-4-quinolone] |  |  |  |  |  |  |  |  |  | GI50 ([3]; Homo sapiens, SF-295, read-out: logGI50 (converted)): 38900 nM; GI50 ([4]; SF-268, read-out: logGI50 (converted)): 25700 nM
COc1cccc(-c2cc(=O)c3cc(N4CCN(C)CC4)ccc3[nH]2)c1 [compound 32, 3'-Methoxy-6-methylpiperazinyl-2-phenyl-4-quinolone] | 0.014 ± 0.002 |  | 1820 | 1550 | 1510 | 1860 | 537 | 912 | 437 | IC50 [1, 18]: 0.014 mM; GI50 [6]: 1510 nM; GI50 [7]: 457 nM; GI50 [8]: 200 nM; GI50 [10]: > 10000 nM; GI50 [13]: 2510 nM
COc1cccc(-c2cc(O)c3cc(N4CCOCC4)ccc3n2)c1 [compound 31, 3'-Methoxy-6-morpholinyl-2-phenyl-4-quinolone] | 0.00036 ± 0.0001 | 43 ± 10 | 49 | 56.2 | 33.9 | 53.7 | 24.5 | 35.5 | 26.9 | antitumor activity / cytotoxicity, in words [5]: highly potent, with an antitumor activity comparable to that of compound 23; GI50 [6]: 33.9 nM; GI50 [15]: 20 nM; GI50 [8]: 8.32 nM; GI50 [10]: 6310 nM; GI50 [13]: 43.7 nM
CN(C)c1cccc(-c2cc(=O)c3cc4c(cc3[nH]2)OCO4)c1 [compound 36] | 0.0007 ± 3e-05 | 29 ± 7 |  |  |  |  |  |  |  | 
COc1ccc(CCc2cc(OC)c(OC)c(OC)c2)cc1O [dihydrocombretastatin A-4, reference compound] | 0.00063 ± 3e-05 | 65 ± 4 |  |  |  |  |  |  |  | 
COc1cccc(-c2cc(=O)c3cc(N4CCCCC4)ccc3[nH]2)c1 [compound 30, 3'-Methoxy-6-piperidinyl-2-phenyl-4-quinolone] | 0.00078 ± 0.0002 | 53 ± 6 |  |  |  |  |  |  |  | 
CNc1cccc(-c2cc(=O)c3cc4c(cc3[nH]2)OCO4)c1 [compound 11, 3'-N-Methylamino-6,7-methylenedioxy-2-phenyl-4-quinolone] | 0.00065 ± 0.0001 | 17 ± 11 | 324 | 513 | 331 | 5500 | 398 | 447 | 245 | GI50 [6]: 537 nM; GI50 [7]: 363 nM; GI50 [15]: 339 nM
COc1cccc(-c2cc(=O)c3cc(NC(=O)c4ccccc4)ccc3[nH]2)c1 [compound 33, 3'-Methoxy-6'-benzamido-2-phenyl-4-quinolone] | 0.0013 ± 7e-05 |  |  |  |  |  |  |  |  | 
Nc1cccc(-c2cc(=O)c3cc4c(cc3[nH]2)OCO4)c1 [compound 10, 3'-Amino-6,7-methylenedioxy-2-phenyl-4-quinolone] | 0.00073 ± 0.0002 | 16 ± 7 | 2400 | 1620 | 708 | 759 | 891 | 933 | 479 | GI50 [6]: 2190 nM; GI50 [7]: 603 nM; GI50 [10]: 38900 nM
O=c1cc(-c2cccc(C(F)(F)F)c2)[nH]c2cc3c(cc12)OCO3 [compound 16, 3'-Trifluoromethyl-6,7-methylenedioxy-2-phenyl-4-quinolone] | 0.00082 ± 0.0002 | 5 ± 7 |  | 2750 | 1380 |  |  |  |  | 
COc1cccc(-c2cc(=O)c3cc(N)ccc3[nH]2)c1 [compound 22, 3'-Methoxy-6-amino-2-phenyl-4-quinolone] | 0.0087 ± 0.003 |  |  | 4570 | 3470 |  |  |  |  | activity in tubulin polymerization assay, in words [1]: moderately active
Nc1ccc2[nH]c(-c3cccc(Cl)c3)cc(=O)c2c1 [compound 20, 3'-Chloro-6-amino-2-phenyl-4-quinolone] | 0.0061 ± 0.001 |  |  | 5500 | 3160 |  |  |  |  | activity in tubulin polymerization assay, in words [1]: moderately active; GI50 [10]: > 100000 nM
Nc1ccc2[nH]c(-c3cccc(C(F)(F)F)c3)cc(=O)c2c1 [compound 21, 3'-Trifluoromethyl-6-amino-2-phenyl-4-quinolone] | > 0.04 |  |  | 39800 | 34700 |  |  |  |  | activity in tubulin polymerization assay, in words [1]: inactive; IC50 [1, 18]: > 0.04 mM
COc1cc([C@@H]2c3cc4c(cc3[C@H](O)[C@H]3COC(=O)[C@H]23)OCO4)cc(OC)c1OC [podophyllotoxin, reference compound] |  | 84 ± 2 |  |  |  |  |  |  |  | 
COc1ccc(/C=C\c2cc(OC)c(OC)c(OC)c2)cc1O [combretastatin A-4, reference compound] |  | 94 ± 2 |  |  |  |  |  |  |  | 
O=c1cc(-c2cccc(Cl)c2)[nH]c2cc3c(cc12)OCO3 [compound 14, 3'-Chloro-6,7-methylenedioxy-2-phenyl-4-quinolone] | 0.00037 ± 3e-05 | 45 ± 7 |  | 501 | 269 |  |  | 209 |  | GI50 [10]: > 75900 nM
O=c1cc(-c2cccc(OC(F)(F)F)c2)[nH]c2ccc(N3CCCC3)cc12 [compound 29, 3'-Trifluoromethoxy-6-pyrrolinyl-2-phenyl-4-quinolone] | 0.00072 ± 0.0002 | 58 ± 5 |  |  |  |  |  |  |  | 
O=c1cc(-c2cccc(Br)c2)[nH]c2cc3c(cc12)OCO3 [compound 15, 3'-Bromo-6,7-methylenedioxy-2-phenyl-4-quinolone] | 0.00053 ± 0.0001 | 26 ± 3 | 331 | 3310 | 3090 | 3020 | 3470 | 4370 | 3390 | GI50 [5, 21]: 3160 nM; GI50 [6]: 3800 nM; GI50 [7]: 2400 nM; GI50 [15]: 4270 nM; GI50 [10]: > 100000 nM
O=c1cc(-c2cccc(F)c2)[nH]c2cc3c(cc12)OCO3 [compound 13, 3'-Fluoro-6,7-methylenedioxy-2-phenyl-4-quinolone] | 0.00053 ± 0.0001 | 51 ± 3 | 141 | 339 |  | 661 | 339 | 269 | 219 | GI50 [6]: 955 nM; GI50 [15]: 288 nM
O=c1cc(-c2cccc(O)c2)[nH]c2cc3c(cc12)OCO3 [compound 12, 3'-Hydroxy-6,7-methylenedioxy-2-phenyl-4-quinolone] | 0.00047 ± 0.0001 | 26 ± 3 | 5500 | 3090 | 3310 | 2290 | 724 | 1480 | 1820 | GI50 [5, 21]: 3160 nM
